The record followed here is US11826373B2, “Methods for treatment of diseases” (Galera Labs, LLC, priority 2011, dated 2023).

For data set [1], the system named is beagle dogs. The experiment in a line: GC4403 7-day IV toxicity in dog. Particulars: 7 days. In kind it is in vivo. The protocol:
GC4403 in 26 mM sodium bicarbonate/0.9% sodium chloride was administered to beagle dogs (4/sex/group) IV (slow bolus injection over at least 1 minute) at dosages of 0, 1, 3 or 6 mg/kg/day for 7 days. There was no mortality during the study. […] At 6 mg/kg/day, animals also had tremors, abnormal stance and gait, inability to stand and prostration. Generally, clinical signs had resolved by two hours after dose administration. As the study progressed, some clinical signs (tremors, inability to stand, prostration and abnormal stance and gait) lessened slightly. […] The lower white cell counts correlated with lower absolute neutrophil and eosinophil counts at ≥3 mg/kg/day, which were, however, within the normal historical values for these parameters. At necropsy, there were no changes in organ weights compared to control animals nor were there macroscopic or microscopic changes in any organs with the exception of fibrosis in the heart of one male at 3 mg/kg/day and 1 male at 6 mg/kg/day.

A further data set deals with Sprague-Dawley rats. In words: Rat GC4403 28-day IV toxicology. In kind it is in vivo. Particulars: 28 days. The protocol: GC4403 was evaluated in a 28-day GLP study in Sprague-Dawley rats. GC4403 was administered to rats (10/sex/group) as slow-bolus IV injections at dosages of 0, 1, 3 or 6 mg/kg/day for 28 days. The control (0 dose) group received vehicle (26 mM sodium bicarbonate in normal saline). Evaluations for compound-related effects were based on clinical observations, body weight, food consumption, hematology and clinical chemistry parameters, functional observation battery, organ weights and gross and microscopic postmortem examinations. There were no compound-related changes in organ weights or macroscopic or microscopic pathology. Based on the results of this study, the NOTEL for GC4403, when administered to rats for 28 days as an IV infusion was 3 mg/kg/day.

A further data set relates to healthy subjects. In words: Human Phase 1 single rising dose safety and tolerability of GC4419. In kind it is in vivo. As for the experimental part:
(§1) A human clinical trial entitled, “A Double-Blind, Placebo-Controlled, Single Rising Dose Study to Evaluate the Safety and Tolerability and Determine the Pharmacokinetics of M40419 Administered as a I5-Minute Intravenous Infusion in Healthy Subjects,” was conducted on 54 subjects. This was a single center, randomized, placebo-controlled, sequential panel, single dose safety, tolerability, and pharmacokinetic study of GC4419 administered as a 75-mL IV infusion over 15 minutes in escalating doses of 10 mg, 15 mg, 22 mg, 33 mg, 50 mg, 75 mg, and 112 mg. The study consisted of two phases: the first phase was a dose escalation with six subjects (four active and two placebo) in each cohort to determine a Maximum Tolerated Dose (MTD); the second phase was a repeat of the MTD dose in 12 subjects (eight active drug and four placebo) to confirm the MTD or safety of highest dose tested. The study population was comprised of 54 healthy male and female subjects (36 males, 18 females) between the ages of 18 and 50 years considered eligible on the basis of inclusion and exclusion criteria. There were four active and two placebo subjects for each dose level in the escalating dose phase of the study, and eight active and four placebo subjects for the confirmation of MTD phase.
All subjects receiving a dose of study medication were evaluated for safety. The safety of the drug product was assessed based on: treatment-emergent adverse events (TEAEs), clinical laboratory evaluations, vital signs, 12-lead electrocardiograms (ECGs) and standard ECG parameters including PR, QRS, QT, and QTc intervals.

The next data set relates to Rats. In words: Rat GC4419 14-day IV study. In kind it is in vivo. The settings on record: 20 mg/kg, Days 1 or 2. The protocol:
(§2) GC4419 was evaluated in a 14-day GLP study in rats. GC4419 was administered to rats (10/sex/group) as 15 minute IV injections at dosages of 0, 5, 10 or 20 (15) mg/kg/day for 14 days. The control group received vehicle (sodium citrate in normal saline). Due to mortality at 20 mg/kg/day, the high dose group was decreased to 15 mg/kg/day on Day 3. Evaluations for compound-related effects were based on clinical observations, body weight, food consumption, hematology and clinical chemistry parameters, functional observation battery, organ weights and gross and microscopic postmortem examinations. […] There were no compound-related changes in organ weights or macroscopic or microscopic pathology. Based on the results of this study the NOAEL for GC4419 when administered to rats for 14 days as a 15 minute IV infusion was 15 mg/kg/day.

Data set [2] can be described thus: Rat GC4419 14-day IV study. In kind it is in vivo. Particulars: both sexes, rat, in vivo; rats, 15 minute IV infusion, 14 days. The protocol:
as §2

The nature of data set [3]: Activity toward hydrogen peroxide. In kind it is biochemical.
Data set [4] in a line: 14-day repeat dose toxicity of GC4419 in dog. In kind it is in vivo, beagle dogs. Particulars: both sexes, dog, in vivo, beagle dogs, IV over 15 minutes once daily. As for the experimental part:
(§3) GC4419 was evaluated in a GLP study in beagle dogs. GC4419 was administered intravenously (IV) over 15 minutes, once daily, to beagle dogs for 14 consecutive days. GC4419 was administered IV into the cephalic vein (4 mL/kg) to 3 groups of dogs (4 animals/sex/group) at dosages of 2.5, 5.0 and 7.5 mg/kg with a fourth group receiving vehicle (26 mM sodium bicarbonate in normal saline). […] All animals recovered from these effects. There were no test-article-related differences in group mean hematology, coagulation, or clinical chemistry parameters or urinalysis parameters after 14 days of treatment in any dosing group. At necropsy on day 15, there were neither test-article related gross macroscopic findings nor test-article-related differences in organ weight. No test-article-related histopathological lesions were present.

In data set [5] the test system is beagle dogs. The experiment in a line: 14-day repeat dose toxicity of GC4419 in dog. In kind it is in vivo. The settings on record: beagle dogs, 2.5, 5.0 and 7.5 mg/kg IV over 15 minutes, 14 days. The protocol: as §3
Data set [6] in a line: Human Phase 1 pharmacokinetics of GC4419. Particulars: both sexes, in vivo. As for the experimental part:
as §1
As part of the conduct of the Phase 1a clinical studies for GC4403 and GC4419 described in the Examples herein, plasma samples were collected for measuring the concentration of parent compounds (GC4403 and GC4419) after intravenous infusion. Table 3 illustrates the pharmacokinetic parameter, area under the curve (AUC), representing the total exposure of the subject to the drugs over time.

Setting [7] is: single intravenous infusion over 15 minutes, healthy subjects.

In the case of `[Cl][Mn-5]1234([Cl])[n+]5c6cccc5C[NH+]1[C@@H]1CCCC[C@H]1[NH+]2CC[NH+]3[C@@H]1CCCC[C@H]1[NH+]4C6` (stereo partly drawn) [GC4403], the mortality result with beagle dogs [1] (dog, 1, 3 or 6 mg/kg/day IV) is recorded as “no mortality”. For the same compound, the “no observed toxic event level (NOTEL)” value in the data set on beagle dogs [1] (dog, IV slow bolus injection) is listed as 3 mg/kg/day. Further, in the data set with beagle dogs [1] (dog, IV slow bolus, scratching, facial swelling, raised red areas, partial closing of the eyes), the “dosage at which clinical signs immediately after dose administration were observed” value was at least 3 mg/kg/day. For the same compound, the NOTEL in the data set on Sprague-Dawley rats is 3 mg/kg/day.
Turning to `[Cl][Mn-5]1234([Cl])[n+]5c6cccc5C[NH+]1[C@H]1CCCC[C@@H]1[NH+]2CC[NH+]3[C@H]1CCCC[C@@H]1[NH+]4C6` (stereo partly drawn) [GC4419], in the data set on healthy subjects (30 of 36 subjects who received trial material, 10-112 mg), the “subjects who experienced at least one TEAE” value is 83.3%. Further, the “tolerability of single doses up to 112 mg” value in the data set on healthy subjects (healthy subjects) was “no serious adverse events”. The “tolerability of single intravenous doses from 10 mg to 50 mg” value in the data set on healthy subjects (healthy subjects) was “safe and well tolerated with no adverse events”. Moreover, in the data set on healthy subjects (setting [7]), the “MTD initially defined in the dose escalation phase” value is reported as 75 mg. The “maximum tolerated dose (MTD), final” value in the data set with healthy subjects (setting [7]) came to 50 mg. In addition, the values for the mortality result with Rats and in the data set with beagle dogs [5] were “Several rats died” and “No animals died”, respectively. Further, the values for the NOAEL at 14 days in [2] and in data set [4] were 15 mg/kg/day and 5 mg/kg/day, respectively. Moreover, in [3], the “activity toward hydrogen peroxide” value is on record as “no detectable activity”. Moreover, the total exposure AUC(0-inf) came out at 741 ng·h/mL in data set [6] (10 mg IV over 15 minutes); 1300 ng·h/mL in [6] (15 mg IV over 15 minutes); 2000 ng·h/mL in [6] (22 mg IV over 15 minutes); 3190 ng·h/mL in [6] (33 mg IV over 15 minutes); 4560 ng·h/mL in data set [6] (50 mg IV over 15 minutes); 6490 ng·h/mL in [6] (75 mg IV over 15 minutes). In addition, in data set [6] (112 mg IV over 15 minutes), the AUC(0-inf) turned out to be 10400 ng·h/mL.

One may read the NOAEL as the highest tested level that showed no adverse finding. As usually defined, the AUC(0-inf) is the area under the concentration-time curve extrapolated to infinity.
